SMILES strings stand for the structures. Converted amounts (≈) assume the structure as drawn. “And” between values parts separate entries of the source, which are not always exact repeats. Equal entries are not always repeated.

For assay [1], the system named is E. coli BL21(DE3). The assay is described as follows: disc diffusion assay. The assay is classed as cell-based. The following applies: 0.15 μmol per 6 mm disc.
The test system of assay [2] is E. coli D22. The assay is described as follows: disc diffusion assay. The following applies: 0.15 μmol per 6 mm disc. Type of assay: cell-based.
Assay [3] deals with T1, LasB (Pseudomonas aeruginosa, UniProt Q02RJ6).
T1 construct: The elastase LasB of P. aeruginosa is a secreted metalloprotease; endogenous in cells; host or cells: P. aeruginosa PA14 culture supernatant
T1 sequence (Q02RJ6 198-498): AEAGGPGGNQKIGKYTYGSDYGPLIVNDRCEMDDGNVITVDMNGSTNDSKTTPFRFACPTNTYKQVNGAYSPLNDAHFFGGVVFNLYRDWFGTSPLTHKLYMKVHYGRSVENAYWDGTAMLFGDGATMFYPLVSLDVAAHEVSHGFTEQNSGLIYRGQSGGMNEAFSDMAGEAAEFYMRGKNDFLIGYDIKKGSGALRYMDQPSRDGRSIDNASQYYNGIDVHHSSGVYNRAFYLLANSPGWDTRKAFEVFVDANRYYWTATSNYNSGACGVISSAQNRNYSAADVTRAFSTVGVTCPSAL
Description: FRET-based LasB in vitro inhibition assay. Type of assay: biochemical, P. aeruginosa PA14. The following applies: for inhibition at 20 µM: read-out: LasB Inhibition at 20 μM. As to the method: Purification of LasB from P. aeruginosa PA14 supernatant and the subsequent performance of the FRET-based in vitro inhibition assay was performed as described previously.[66] The TACE (ADAM-17) inhibitor screening kit was purchased from Sigma-Aldrich (Saint Louis, MO). MMPs 1–3 along with the SensoLyte 520 Generic MMP Activity Kit Fluorimetric were purchased from AnaSpec (Fremont, CA, USA). The assays were performed according to the guidelines of the respective manufacturer. Fluorescence signals were measured using a CLARIOstar plate reader (BMG Labtech, Ortenberg, Germany).

For assay [4], the target named is T2, E. coli LpxC C63A (Escherichia coli, UniProt P0A725, C63A).
T2 construct: made in house; host or cells: E. coli BL21(DE3)
T2 sequence (P0A725 whole entry C63A): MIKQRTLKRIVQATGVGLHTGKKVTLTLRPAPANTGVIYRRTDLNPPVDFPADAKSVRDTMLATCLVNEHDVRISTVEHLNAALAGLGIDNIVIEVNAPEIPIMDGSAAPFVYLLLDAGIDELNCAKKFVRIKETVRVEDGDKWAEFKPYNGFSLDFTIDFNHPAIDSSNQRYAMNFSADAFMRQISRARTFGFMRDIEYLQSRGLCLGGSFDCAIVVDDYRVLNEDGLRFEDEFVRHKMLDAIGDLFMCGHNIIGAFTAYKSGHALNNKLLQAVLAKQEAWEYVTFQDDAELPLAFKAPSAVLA
The assay is described as follows: fluorescence-based E. coli LpxC C63A enzyme inhibition assay. The assay is classed as biochemical. The following applies: for fold higher LpxC inhibitory activity than its enantiomer (eudysmic ratio): E. coli LpxC C63A, (S) versus (R); for Ki: Ki E. coli LpxC C63A, from IC50 via Cheng–Prusoff. A digest of the protocol:
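Purified E. coli LpxC C63A (15 nM) was incubated with 25 µM UDP-3-O-[(R)-3-hydroxymyristoyl]-GlcNAc in MES pH 6.0 buffer (2% DMSO) for 30 min at 37 °C. Compounds ranged from 20 nM to 20 µM. Product was derivatized with o-phthaldialdehyde/2-mercaptoethanol and read by fluorescence (ex 340/em 460), with IC50 converted to Ki via Cheng–Prusoff.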

Assay [5] concerns E. coli BL21(DE3). The assay is described as follows: MIC, broth microdilution. The following applies: Escherichia coli, 20 h, 37 °C, LB. Type of assay: cell-based. The method in brief:
(§1)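 LB broth microdilution, inoculum 5 × 10^5 cfu mL^–1, 5% DMSO, 2-fold compound series 64–0.016 μg mL^–1 final, incubated 20 h at 37 °C. MIC was the lowest concentration preventing visible growth, from at least three runs on separate days.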

Assay [6] relates to E. coli D22. The assay is described as follows: MIC, broth microdilution. The assay is classed as cell-based. The following applies: Escherichia coli, 20 h, 37 °C, LB. The method in brief:
as §1

The subject of assay [7] is P. aeruginosa ATCC 27853. Description: disc diffusion assay. The assay is classed as cell-based. The following applies: 0.15 μmol per 6 mm disc. As to the method: (§2) In the performed disc diffusion assays, indole derivatives (S)-13h, (S)-13i, and (S)-13j caused promising halos of growth inhibition.
(§3) The disc diffusion assays against E. coli TOP10 (Thermo Fisher, Waltham, USA), E. coli ATCC 35218, K. pneumoniae ATCC 700603, and P. aeruginosa ATCC 27853 were performed as follows: the bacteria were grown overnight on a Columbia blood agar plate (Oxoid, Basingstoke, UK), and one colony was suspended in sterile saline to yield a suspension of 0.5 McFarland standard. Using a sterile swab, the suspension was spread evenly onto Mueller–Hinton agar (Oxoid, Basingstoke, UK). 0.15 μmol of each compound (dissolved in 10 μL DMSO) was applied onto circular 6 mm diameter filter paper disks, which were then placed on the agar. After incubating the agar plates for 20 h at 37 °C, the diameter of the zone of growth inhibition was measured for each compound.

Assay [8] relates to E. coli ATCC 35218. The assay is described as follows: disc diffusion assay. Type of assay: cell-based. The following applies: 0.15 μmol per 6 mm disc. As to the method:
as §2, §3

Assay [9] relates to E. coli TOP10. Description: disc diffusion assay. Type of assay: cell-based. The following applies: 0.15 μmol per 6 mm disc. As to the method: as §2, §3

For the compound `O=C(NO)[C@H](COCc1ccccc1)OCc1ccc(C#Cc2ccc(CN3CCOCC3)cc2)cc1` [(S)-11a, (S)-3-(Benzyloxy)-N-hydroxy-2-[(4-{[4-(morpholinomethyl)phenyl]ethynyl}benzyl)oxy]propanamide], in assay [1], the “Inhibition zone E. coli BL21(DE3)” value is listed as not above 6 mm. Besides, in [2], the “Inhibition zone E. coli D22” value was 15.4 ± 2.4 mm. Besides, in assay [3], the IC50 is 14300 ± 900 nM and the inhibition at 20 µM was 62.3 ± 3.2%. In assay [4], the “fold higher LpxC inhibitory activity than its enantiomer (eudysmic ratio)” value was 6 fold and the affinity, expressed as Ki, was 606 ± 356 nM. The MIC in assay [5] was more than 32 µg/mL. In assay [6], the MIC was found to be 0.5 µg/mL (≈ 0.999 µM).
Turning to `O=C(NO)[C@H](CNCc1ccccc1)OCc1ccc(C#Cc2ccc(CN3CCOCC3)cc2)cc1` [(S)-12a, (S)-3-(Benzylamino)-N-hydroxy-2-[(4-{[4-(morpholinomethyl)phenyl]ethynyl}benzyl)oxy]propanamide], the “Inhibition zone E. coli BL21(DE3)” value in [1] is 13.0 ± 1.0 mm. Also, the “Inhibition zone E. coli D22” value in assay [2] amounted to 24.3 ± 2.1 mm. For the same compound, in [3], 21900 ± 1200 nM corresponded to half-maximal inhibition (IC50). In addition, in assay [3], the inhibition at 20 µM was 57 ± 2%. In assay [4], this compound displayed a Ki of 4590 ± 1260 nM. Besides, the MIC in assay [5] is 16 µg/mL (≈ 32 µM); in assay [6], 0.5 µg/mL (≈ 1 µM).
For `O=C(NC[C@H](OCc1ccc(C#Cc2ccc(CN3CCOCC3)cc2)cc1)C(=O)NO)c1ccccc1` [(S)-13a, (S)-N-{3-(Hydroxyamino)-2-[(4-{[4-(morpholinomethyl)phenyl]ethynyl}benzyl)oxy]-3-oxopropyl}benzamide], the “Inhibition zone P. aeruginosa ATCC 27853” value in assay [7] was 7.0 ± 1.0 mm. The “Inhibition zone E. coli ATCC 35218” value in [8] came to 19.3 ± 0.6 mm. Further, the “Inhibition zone E. coli TOP 10” value in assay [9] amounted to 23.3 ± 0.6 mm. For the same compound, the “Inhibition zone E. coli BL21(DE3)” value in assay [1] was determined as 15.7 ± 1.6 mm. In addition, the “Inhibition zone E. coli D22” value in assay [2] is 26.3 ± 1.5 mm. The inhibition at 20 µM in assay [3] is 20.1 ± 3.9%. For the same compound, in assay [4], the “fold higher LpxC inhibitory activity than its enantiomer (eudysmic ratio)” value is 17 fold; the Ki is 150 nM and 149 nM. The compound also gave a minimum inhibitory concentration (MIC) in assay [5] of 8 µg/mL (≈ 15.6 µM). This compound also displayed an MIC in assay [6] of 0.13 µg/mL (≈ 0.253 µM).
Turning to `O=C(NC[C@H](OCc1ccc(C#Cc2ccc(CN3CCOCC3)cc2)cc1)C(=O)NO)c1cccc(-c2ccccc2)c1` [(S)-13c], the “Inhibition zone P. aeruginosa ATCC 27853” value in [7] worked out at 6.3 ± 0.6 mm. Moreover, in assay [8], the “Inhibition zone E. coli ATCC 35218” value was 7.7 ± 1.5 mm. Further, the “Inhibition zone E. coli TOP 10” value in assay [9] is recorded as 8.0 ± 0 mm. The “Inhibition zone E. coli BL21(DE3)” value in assay [1] is not above 6 mm. Besides, the “Inhibition zone E. coli D22” value in assay [2] came to 19.0 ± 1.5 mm. In addition, in assay [3], the “LasB Inhibition at 20 μM” value was “little to no inhibitory activity”. In addition, the inhibition at 20 µM in assay [3] was less than 10%. Moreover, in [4], the Ki is 42 nM and 41.5 nM. Moreover, the values for the MIC in [5] and in assay [6] were more than 16 µg/mL and 0.13 µg/mL (≈ 0.22 µM), respectively.
Take `O=C(NC[C@H](OCc1ccc(C#Cc2ccc(CN3CCOCC3)cc2)cc1)C(=O)NO)c1ccc(Oc2ccccc2)cc1` [(S)-13d]: in assay [7], the “Inhibition zone P. aeruginosa ATCC 27853” value was 6.3 ± 0.6 mm. Besides, the “Inhibition zone E. coli ATCC 35218” value in [8] is 7.0 ± 1.0 mm. The “Inhibition zone E. coli TOP 10” value in assay [9] is given as less than 6 mm. The “Inhibition zone E. coli BL21(DE3)” value in assay [1] is recorded as not above 6 mm. Also, the “Inhibition zone E. coli D22” value in assay [2] stood at 9.3 ± 1.6 mm. Further, in [3], the “LasB Inhibition at 20 μM” value is reported as “little to no inhibitory activity” and the inhibition at 20 µM is less than 10%. The same compound gave a Ki in assay [4] of 323 ± 126 nM. In addition, in assay [5], the MIC was more than 16 µg/mL. This compound displayed an MIC in assay [6] of 0.25 µg/mL (≈ 0.413 µM).
With `O=C(NC[C@H](OCc1ccc(C#Cc2ccc(CN3CCOCC3)cc2)cc1)C(=O)NO)c1ccc2ccccc2n1` [(S)-13e], the “Inhibition zone P. aeruginosa ATCC 27853” value in assay [7] is listed as 6.3 ± 0.6 mm. Moreover, the “Inhibition zone E. coli ATCC 35218” value in [8] was 7.7 ± 1.5 mm. Besides, the “Inhibition zone E. coli TOP 10” value in assay [9] is on record as 8.0 ± 0 mm. In [1], the “Inhibition zone E. coli BL21(DE3)” value is reported as not above 6 mm. The “Inhibition zone E. coli D22” value in assay [2] is 16.0 ± 2.5 mm. The “LasB Inhibition at 20 μM” value in [3] is given as “little to no inhibitory activity”. Also, the inhibition at 20 µM in assay [3] worked out at 11.6 ± 1.9%. The compound further had a Ki in [4] of 377 ± 83 nM. The minimum inhibitory concentration (MIC) was more than 16 µg/mL in assay [5] and 0.25 µg/mL (≈ 0.443 µM) in assay [6].

Values taken from publication PMC11472313, “Development of Fragment-Based Inhibitors of the Bacterial Deacetylase LpxC with Low Nanomolar Activity” (Journal of Medicinal Chemistry, 2024).
